Results reported in publication PMC3324983 (ACS Medicinal Chemistry Letters, 2012).

Columns and labels:
[1] = system: CDK1 phosphorylation in tsFT210 cells; test: Western blotting of CDK1 phosphorylation status in tsFT210 cells; format: cell-based, mouse; settings: 5–50 μM, permissive temperature 32 °C
tsFT210 cells = test: Cell cycle analysis of G2-synchronized tsFT210 cells; format: cell-based, mouse; settings: 5–50 μM, 4 h at 32 °C, compared with the vehicle control
[2] = system: ROS level in tsFT210 cells; test: Measurement of ROS in tsFT210 cells with H2DCFDA; settings: 50 μM, 30 min at 32 °C

## CCCCCCCCCCCCCCC/C(NCc1ccccc1)=C1/C(=O)OC(CO)C1=O (stereo not drawn) [Compound 7]
[1]
  inhibition of the dephosphorylation of CDK1: concentration dependently inhibited the dephosphorylation of CDK1
tsFT210 cells
  effect on G2/M arrest of tsFT210 cells after release: predominantly maintained the G2/M arrest of tsFT210 cells in a concentration-dependent manner
[2]
  change of H2DCFDA fluorescence intensity (ROS): did not induce a significant change

## CCCCCCCCCCCCCCCC(NCc1cccc(C)c1)=C1C(=O)OC(CO)C1=O (stereo not drawn) [Compound 8a]
[1]
  inhibition of the dephosphorylation of CDK1: did not inhibit the dephosphorylation of CDK1 even at 50 μM
tsFT210 cells
  effect on G2/M arrest of tsFT210 cells after release: had little effect on tsFT210 cells
[2]
  change of H2DCFDA fluorescence intensity (ROS): did not induce a significant change

## CCCCCCCCCCCCCCCC(NCc1ccccc1O)=C1C(=O)OC(CO)C1=O (stereo not drawn) [Compound 10d]
[1]
  inhibition of the dephosphorylation of CDK1: concentration dependently inhibited the dephosphorylation of CDK1
tsFT210 cells
  effect on G2/M arrest of tsFT210 cells after release: predominantly maintained the G2/M arrest of tsFT210 cells in a concentration-dependent manner
[2]
  change of H2DCFDA fluorescence intensity (ROS): did not induce a significant change
